Measured values as given in PubChem BioAssay AID330 (DTP/NCI, 2004).
Several values for one entry are separate records, joined by “and”; a condition that tells them apart may be missing. Equal values may be shown once. Inconclusive results and toxic doses are left out. Rule for the calls: active = survival T/C of 150% or more; inactive = T/C below 125% in these data.

Tested on: P388 leukemia ip, CD2F1 mice, survival T/C
Assay: NCI In Vivo Anticancer Drug Screen. Data for tumor model P388 Leukemia (intraperitoneal) in CD2F1 (CDF1) mice
Conditions: endpoint: median survival time, higher = longer survival
Outline: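 Mice carrying the transplanted tumor received test compound or vehicle. Survival was recorded in each group, and the value is the treated-group measurement divided by that of the vehicle-treated control group.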

[1] = dose: 100.0 mg/kg/injection, schedule: Q04DX003 (ip), vehicle: Klucel (hydroxypropylcellulose) (HPC)
[2] = dose: 200.0 mg/kg/injection, schedule: Q04DX003 (ip), vehicle: Klucel (hydroxypropylcellulose) (HPC)
[3] = dose: 25.0 mg/kg/injection, schedule: Q01DX009 (ip), vehicle: saline with Tween-80
[4] = dose: 50.0 mg/kg/injection, schedule: Q01DX009 (ip), vehicle: saline with Tween-80
[5] = dose: 100.0 mg/kg/injection, schedule: Q04DX003 (ip), vehicle: saline with Tween-80
[6] = dose: 200.0 mg/kg/injection, schedule: Q04DX003 (ip), vehicle: saline with Tween-80
[7] = dose: 100.0 mg/kg/injection, schedule: Q04DX002 (ip), vehicle: saline with Tween-80
[8] = dose: 200.0 mg/kg/injection, schedule: Q04DX002 (ip), vehicle: saline with Tween-80
[9] = dose: 400.0 mg/kg/injection, schedule: Q04DX002 (ip), vehicle: saline with Tween-80
[10] = dose: 100.0 mg/kg/injection, schedule: Q01DX009 (ip), vehicle: water
[11] = dose: 60.0 mg/kg/injection, schedule: Q01DX005 (ip), vehicle: Klucel (hydroxypropylcellulose) (HPC)
[12] = dose: 120.0 mg/kg/injection, schedule: Q01DX005 (ip), vehicle: Klucel (hydroxypropylcellulose) (HPC)
[13] = dose: 240.0 mg/kg/injection, schedule: Q01DX005 (ip), vehicle: Klucel (hydroxypropylcellulose) (HPC)
[14] = dose: 50.0 mg/kg/injection, schedule: Q01DX005 (ip), vehicle: saline with Tween-80
[15] = dose: 100.0 mg/kg/injection, schedule: Q01DX005 (ip), vehicle: saline with Tween-80
[16] = dose: 200.0 mg/kg/injection, schedule: Q01DX005 (ip), vehicle: saline with Tween-80
[17] = dose: 60.0 mg/kg/injection, schedule: Q01DX005 (ip), vehicle: saline with Tween-80
[18] = dose: 240.0 mg/kg/injection, schedule: Q01DX005 (ip), vehicle: saline with Tween-80
[19] = dose: 120.0 mg/kg/injection, schedule: Q01DX005 (ip), vehicle: saline with Tween-80
[20] = dose: 25.0 mg/kg/injection, schedule: Q01DX005 (ip), vehicle: saline with Tween-80

Measured: T/C

O=C(/C=C/c1ccco1)c1ccc(Cl)cc1
inactive: dose: 50.0 mg/kg/injection, schedule: Q01DX001 (ip), vehicle: saline sonified 100 % of control | dose: 100.0 mg/kg/injection, schedule: Q01DX001 (ip), vehicle: saline sonified 95 % of control | dose: 200.0 mg/kg/injection, schedule: Q01DX001 (ip), vehicle: saline sonified 100 % of control

C/C(C(=O)NC1CC1)=C(\C)c1ccc(Br)cc1
inactive: dose: 50.0 mg/kg/injection, schedule: Q04DX003 (ip), vehicle: Klucel (hydroxypropylcellulose) (HPC) 99 % of control | [1] 99 % of control | [2] 98 % of control

C[CH2][Ge]([CH2]C)[CH2]C.C[CH2][Ge]([CH2]C)[O]C(C)=O
inactive: dose: 50.0 mg/kg/injection, schedule: Q01DX009 (ip), vehicle: saline 95 % of control | dose: 100.0 mg/kg/injection, schedule: Q01DX009 (ip), vehicle: saline 98 % of control | dose: 200.0 mg/kg/injection, schedule: Q01DX009 (ip), vehicle: saline 96 % of control

C=CCn1cnc2c(=S)nc[nH]c21
inactive: dose: 12.5 mg/kg/injection, schedule: Q01DX009 (ip), vehicle: saline with Tween-80 104 % of control | [3] 104 % of control | [4] 109 % of control | [5] 109 % of control | [6] 100 % of control

O=[N+]([O-])c1ccc(N=Nc2c(-c3ccccc3)nn(C(=S)S)c2-c2ccccc2)cc1
inactive: [7] 92 % of control | [8] 97 % of control | [9] 101 % of control

c1ccc2sc(SN3CCOCC3)nc2c1
inactive: [5] 87 % of control | [6] 100 % of control | dose: 400.0 mg/kg/injection, schedule: Q04DX003 (ip), vehicle: saline with Tween-80 95 % of control

CN1c2ccccc2Sc2cc(N3c4ccccc4Sc4ccc(C(F)(F)F)cc43)c(C(F)(F)F)cc21
inactive: [1] 101 % of control | [2] 100 % of control | dose: 400.0 mg/kg/injection, schedule: Q04DX003 (ip), vehicle: Klucel (hydroxypropylcellulose) (HPC) 98 % of control

O=C1c2ccccc2C(=O)c2c(NCCCNCCO)ccc(NCCCNCCO)c21
inactive: dose: 3.75 mg/kg/injection, schedule: Q01DX005 (ip), vehicle: other 104 % of control | dose: 6.25 mg/kg/injection, schedule: Q01DX009 (ip), vehicle: water 101 % of control | dose: 7.5 mg/kg/injection, schedule: Q01DX005 (ip), vehicle: other 111 % of control | dose: 7.5 mg/kg/injection, schedule: Q01DX009 (ip), vehicle: water 110 % of control | dose: 12.5 mg/kg/injection, schedule: Q01DX009 (ip), vehicle: water 117 % of control | dose: 15.0 mg/kg/injection, schedule: Q01DX005 (ip), vehicle: other 119 % of control | dose: 15.0 mg/kg/injection, schedule: Q01DX009 (ip), vehicle: water 117 % of control | dose: 30.0 mg/kg/injection, schedule: Q01DX005 (ip), vehicle: other 120 % of control | dose: 100.0 mg/kg/injection, schedule: Q01DX009 (ip), vehicle: other 97 % of control | [10] 99 % of control

C=CC(=O)C(C(=O)OCC)=P(c1ccccc1)(c1ccccc1)c1ccccc1
inactive: [11] 98 % of control | [12] 97 % of control | [13] 101 % of control

C/C(=N\N=C(\N)N1CCOCC1)c1ccc2c(c1)Cc1ccccc1-2
inactive: [7] 101 % of control

Cn1c(=O)c2cc(C#N)c(N)nc2n(C)c1=O
inactive: dose: 75.0 mg/kg/injection, schedule: Q01DX009 (ip), vehicle: saline with Tween-80 104 % of control | dose: 150.0 mg/kg/injection, schedule: Q01DX009 (ip), vehicle: saline with Tween-80 96 % of control | dose: 300.0 mg/kg/injection, schedule: Q01DX009 (ip), vehicle: saline with Tween-80 93 % of control

Cc1cc(=O)c2c(ccc3cc4ccccc4cc32)[nH]1
inactive: [14] 98 % of control | [15] 98 % of control | [16] 97 % of control

COc1ccc(C=NCCN=Cc2ccc(OC)cc2)cc1
inactive: dose: 25.0 mg/kg/injection, schedule: Q04DX003 (ip), vehicle: saline with Tween-80 100 % of control | dose: 50.0 mg/kg/injection, schedule: Q04DX003 (ip), vehicle: saline with Tween-80 109 % of control | [5] 108 % of control | [6] 110 % of control

CC(N)C(=O)NC1C(O)OC(CO)C(O)C1O (stereo not given)
inactive: dose: 25.0 mg/kg/injection, schedule: Q01DX009 (ip), vehicle: water 101 % of control | dose: 50.0 mg/kg/injection, schedule: Q01DX009 (ip), vehicle: water 104 % of control | [10] 111 % of control | dose: 200.0 mg/kg/injection, schedule: Q01DX009 (ip), vehicle: water 104 % of control | dose: 400.0 mg/kg/injection, schedule: Q01DX009 (ip), vehicle: water 101 % of control | dose: 800.0 mg/kg/injection, schedule: Q01DX009 (ip), vehicle: water 93 % of control

c1ccc(CNc2cccc(NCc3ccccn3)n2)nc1
inactive: dose: 50.0 mg/kg/injection, schedule: Q01DX005 (ip), vehicle: Klucel (hydroxypropylcellulose) (HPC) 101 % of control | dose: 100.0 mg/kg/injection, schedule: Q01DX005 (ip), vehicle: Klucel (hydroxypropylcellulose) (HPC) 95 % of control | dose: 200.0 mg/kg/injection, schedule: Q01DX005 (ip), vehicle: Klucel (hydroxypropylcellulose) (HPC) 108 % of control

O=C(O)c1cccnc1C(=O)Nc1cccc2ccccc12
inactive: dose: 15.0 mg/kg/injection, schedule: Q01DX005 (ip), vehicle: saline with Tween-80 102 % of control | dose: 30.0 mg/kg/injection, schedule: Q01DX005 (ip), vehicle: saline with Tween-80 98 % of control | [17] 99 % of control (2×) and 93 % of control | [18] 86 % of control and 92 % of control

O=C(O)/C=C\C(=O)OCc1ccc(Cl)cc1Cl
inactive: [3] 86 % of control | [4] 90 % of control

CC(C)(C)c1cc(C(c2ccc3c(c2)OCO3)N2CCOCC2)c(O)c(C(C)(C)C)c1 (stereo not given)
inactive: [17] 100 % of control | [19] 100 % of control | [18] 100 % of control

CC1(C)OC2(C)NS(=O)(=O)c3ccc(Cl)cc3N2C1=O (stereo not given)
inactive: [4] 106 % of control | dose: 100.0 mg/kg/injection, schedule: Q01DX009 (ip), vehicle: saline with Tween-80 100 % of control | dose: 200.0 mg/kg/injection, schedule: Q01DX009 (ip), vehicle: saline with Tween-80 98 % of control

O=C(NNc1ccccc1)N(Nc1ccccc1)C(=O)Nc1ccccc1
inactive: [14] 99 % of control | [15] 91 % of control | [16] 99 % of control

O=C(O)C1=CC2C=C(Cl)C=CC2OC1=O (stereo not given)
inactive: [17] 100 % of control | [19] 100 % of control

CCCCN(CCCC)CCC(=O)c1ccc(Cl)c2ccccc12
inactive: [20] 97 % of control | [14] 105 % of control

COc1ccc(S(=O)(=O)N/N=C/c2cc([N+](=O)[O-])cc(I)c2O)cc1
inactive: [14] 101 % of control | [15] 100 % of control | [16] 117 % of control

COc1cc(O)ccc1/C=C/C(=O)c1ccc(OC2OC(CO)C(O)C(O)C2O)cc1 (stereo not given)
inactive: [7] 98 % of control | [8] 105 % of control | [9] 108 % of control

C=C(Br)C[C@]1(C(=O)OC)CC(=O)CC[C@H]1c1ccco1
inactive: [11] 108 % of control | [12] 107 % of control | [13] 106 % of control

[Cl][Pd][Cl]
inactive: dose: 3.0 mg/kg/injection, schedule: Q01DX009 (ip), vehicle: saline with Tween-80 95 % of control | dose: 6.0 mg/kg/injection, schedule: Q01DX009 (ip), vehicle: saline with Tween-80 113 % of control | dose: 12.0 mg/kg/injection, schedule: Q01DX009 (ip), vehicle: saline with Tween-80 122 % of control

CCCNP1(NCCC)=NP(NCCC)(NCCC)=NP(NCCC)(NCCC)=NP(NCCC)(NCCC)=N1
inactive: dose: 12.5 mg/kg/injection, schedule: Q01DX005 (ip), vehicle: saline with Tween-80 104 % of control | [20] 99 % of control | [14] 100 % of control and 104 % of control
